Reference: patent US7202196B2, “Selective herbicide comprising a tetrazolinone derivative” (Bayer Cropscience AG, priority 2001, dated 2007)

Tests used:
Type in all cases: in vivo
Paddy rice (Oryza sp.) [1] = assay: Example E: test in sown rice (Brazil), damage to rice; conditions: fentrazamide 250 EC 300 g a.i./ha; spray at BBCH 23 stage of the rice, 29 days after sowing; scored 2 weeks after application; outdoor test Brazil 1999
Source text: (§1) To prepare a spray preparation, the active compound preparations are mixed with water. The concentration is adjusted so that the application rate corresponds to 200 l of water/ha.
(§2) Rice seeds are sown in test plots (2 m×5 m) in rice paddies. 29 days after sowing (during the BBCH 23 development stage of the rice; begin of stocking), the spray preparation is applied to the test areas (using a hand-operated sprayer). A few days after the treatment, the soil is flooded to a water depth of 5 cm; the standing water levels are kept constant.
(§3) 2 weeks after the active compound application, the degree of damage to the rice plants and the herbicidal effect on the emerged weeds Echinochloa crus-galli and Brachiaria plantaginea is scored visually in percent in comparison to an untreated control.
(§4) The figures denote: • 0%=no action/damage (like untreated control) • 100%=total destruction

Paddy rice (Oryza sp.) [2] = assay: Example I: test in sown rice (Thailand), damage to rice; conditions: fentrazamide 50 WP 135 g a.i./ha; spray 7 days after sowing (2-leaf-stage); scored 3 weeks after application; outdoor test Thailand 1999
Source text: as §1
as §2, with “(2.5 m×2.5” for “(2 m×5”, “7” for “29”, “(2-leaf-stage” for “(during the BBCH 23 development stage”, “rice),” for “rice; begin of stocking),”, “2” for “A few”
(§5) 3 weeks after the active compound application, the degree of damage to the rice plants and the herbicidal effect on the emerged weeds Echinochloa crus-galli is scored visually in percent in comparison to an untreated control.
as §4

Paddy rice (Oryza sp.) [3] = assay: Example B: test in sown rice (Brazil), damage to rice; conditions: fentrazamide 250 EC 300 g a.i./ha; spray at BBCH 23 stage of the rice, 29 days after sowing; scored 2 weeks after application; outdoor test Brazil 1999
Source text: as §1, §2, §3, §4

Echinochloa crus-galli [4] = assay: Example H: test in sown rice (Thailand), herbicidal effect; conditions: fentrazamide 50 WP 135 g a.i./ha; spray 7 days after sowing (2-leaf-stage); scored 8 weeks after application; outdoor test Thailand 1999
Source text: as §1
as §2, with “(2.5 m×2.5” for “(2 m×5”, “7” for “29”, “(2-leaf-stage” for “(during the BBCH 23 development stage”, “rice),” for “rice; begin of stocking),”, “2” for “A few”
(§6) 8 weeks after the active compound application, the degree of damage to the rice plants and the herbicidal effect on the emerged weeds Echinochloa crus-galli and Leptochloa chinensis is scored visually in percent in comparison to an untreated control.
as §4

Leptochloa chinensis = assay: as above; conditions: fentrazamide 50 WP 135 g a.i./ha; spray 7 days after sowing (2-leaf-stage); scored 8 weeks after application; outdoor test Thailand 1999
Source text: as §1
as §2, with “(2.5 m×2.5” for “(2 m×5”, “7” for “29”, “(2-leaf-stage” for “(during the BBCH 23 development stage”, “rice),” for “rice; begin of stocking),”, “2” for “A few”
as §6, §4

Paddy rice (Oryza sp.) [5] = assay: Example A: test in sown rice (Brazil), damage to rice; conditions: fentrazamide 250 EC 400 g a.i./ha; spray at 1-2-leaf stage of the rice, 10 days after sowing; scored 3 weeks after application; outdoor test Brazil 1999
Source text: as §1
as §2, with “10” for “29”, “(when” for “(during”, “rice has reached” for “BBCH 23 development stage of”, “1-2-leaf stage),” for “rice; begin of stocking),”, “1 month” for “A few days”
(§7) 3 weeks after the active compound application, the degree of damage to the rice plants and the herbicidal effect on the emerged weeds of the species Aeschynomene rudis is scored visually in percent in comparison to an untreated control.
as §4

Eleusine indica = assay: Example F: test in sown rice (Brazil), herbicidal effect; conditions: fentrazamide 250 EC 300 g a.i./ha; spray at BBCH 12 stage of the rice (2-leaf-stage), 18 days after sowing; scored 3 weeks after application; outdoor test Brazil 1999
Source text: as §1
(§8) Rice seeds are sown in test plots (2 m×5 m) in rice paddies. 18 days after sowing (during the BBCH 12 development stage of the rice; corresponds to the 2-leaf-stage), the spray preparation is applied to the test areas (using a hand-operated sprayer).
(§9) 3 weeks after the active compound application, the degree of damage to the rice plants and the herbicidal effect on the emerged weeds Acanthospermum hispidum, Commelina benghalensis, Digitaria sanguinalis and Eleusine indica is scored visually in percent in comparison to an untreated control.
as §4

Acanthospermum hispidum = assay: as above; conditions: fentrazamide 250 EC 300 g a.i./ha; spray at BBCH 12 stage of the rice (2-leaf-stage), 18 days after sowing; scored 3 weeks after application; outdoor test Brazil 1999
Source text: as §1, §8, §9, §4

Digitaria sanguinalis = assay: as above; conditions: fentrazamide 250 EC 300 g a.i./ha; spray at BBCH 12 stage of the rice (2-leaf-stage), 18 days after sowing; scored 3 weeks after application; outdoor test Brazil 1999
Source text: as §1, §8, §9, §4

Commelina benghalensis = assay: as above; conditions: fentrazamide 250 EC 300 g a.i./ha; spray at BBCH 12 stage of the rice (2-leaf-stage), 18 days after sowing; scored 3 weeks after application; outdoor test Brazil 1999
Source text: as §1, §8, §9, §4

Aeschynomene rudis = assay: Example A: test in sown rice (Brazil), herbicidal effect; conditions: fentrazamide 250 EC 400 g a.i./ha; spray at 1-2-leaf stage of the rice, 10 days after sowing; scored 3 weeks after application; outdoor test Brazil 1999
Source text: as §1
as §2, with “10” for “29”, “(when” for “(during”, “rice has reached” for “BBCH 23 development stage of”, “1-2-leaf stage),” for “rice; begin of stocking),”, “1 month” for “A few days”
as §7, §4

Paddy rice (Oryza sp.) [6] = assay: Example C: test in sown rice (Brazil), damage to rice; conditions: fentrazamide 250 EC 300 g a.i./ha; spray at BBCH 23 stage of the rice, 29 days after sowing; scored 2 weeks after application; outdoor test Brazil 1999
Source text: as §1, §2, §3, §4

Paddy rice (Oryza sp.) [7] = assay: Example H: test in sown rice (Thailand), damage to rice; conditions: fentrazamide 50 WP 135 g a.i./ha; spray 7 days after sowing (2-leaf-stage); scored 8 weeks after application; outdoor test Thailand 1999
Source text: as §1
as §2, with “(2.5 m×2.5” for “(2 m×5”, “7” for “29”, “(2-leaf-stage” for “(during the BBCH 23 development stage”, “rice),” for “rice; begin of stocking),”, “2” for “A few”
as §6, §4

[8] = test system: Mountain rice (Oryza sp.); assay: Example F: test in sown rice (Brazil), damage to rice; conditions: fentrazamide 250 EC 300 g a.i./ha; spray at BBCH 12 stage of the rice (2-leaf-stage), 18 days after sowing; scored 3 weeks after application; outdoor test Brazil 1999
Source text: as §1, §8, §9, §4

Echinochloa crus-galli [9] = assay: Example C: test in sown rice (Brazil), herbicidal effect; conditions: fentrazamide 250 EC 300 g a.i./ha; spray at BBCH 23 stage of the rice, 29 days after sowing; scored 2 weeks after application; outdoor test Brazil 1999
Source text: as §1, §2, §3, §4

Brachiaria plantaginea [10] = assay: as above; conditions: fentrazamide 250 EC 300 g a.i./ha; spray at BBCH 23 stage of the rice, 29 days after sowing; scored 2 weeks after application; outdoor test Brazil 1999
Source text: as §1, §2, §3, §4

Echinochloa crus-galli [11] = assay: Example I: test in sown rice (Thailand), herbicidal effect; conditions: fentrazamide 50 WP 135 g a.i./ha; spray 7 days after sowing (2-leaf-stage); scored 3 weeks after application; outdoor test Thailand 1999
Source text: as §1
as §2, with “(2.5 m×2.5” for “(2 m×5”, “7” for “29”, “(2-leaf-stage” for “(during the BBCH 23 development stage”, “rice),” for “rice; begin of stocking),”, “2” for “A few”
as §5, §4

Paddy rice (Oryza sp.) [12] = assay: Example G: test in sown rice (Philippines), damage to rice; conditions: fentrazamide 50 WP 135 g a.i./ha; spray 11 days after sowing (4-leaf-stage); scored 8 weeks after application; outdoor test Philippines 1999
Source text: as §1
as §2, with “(2.5 m×2.5” for “(2 m×5”, “11” for “29”, “(4-leaf-stage” for “(during the BBCH 23 development stage”, “rice),” for “rice; begin of stocking),”, “1 day” for “A few days”
(§10) 8 weeks after the active compound application, the degree of damage to the rice plants and the herbicidal effect on the emerged weeds of the species Echinochloa crus-galli is scored visually in percent in comparison to an untreated control.
as §4

Echinochloa crus-galli [13] = assay: Example D: test in sown rice (Brazil), herbicidal effect; conditions: fentrazamide 250 EC 300 g a.i./ha; spray at BBCH 23 stage of the rice, 29 days after sowing; scored 2 weeks after application; outdoor test Brazil 1999
Source text: as §1, §2, §3, §4

Brachiaria plantaginea [14] = assay: as above; conditions: fentrazamide 250 EC 300 g a.i./ha; spray at BBCH 23 stage of the rice, 29 days after sowing; scored 2 weeks after application; outdoor test Brazil 1999
Source text: as §1, §2, §3, §4

Echinochloa crus-galli [15] = assay: Example B: test in sown rice (Brazil), herbicidal effect; conditions: fentrazamide 250 EC 300 g a.i./ha; spray at BBCH 23 stage of the rice, 29 days after sowing; scored 2 weeks after application; outdoor test Brazil 1999
Source text: as §1, §2, §3, §4

Brachiaria plantaginea [16] = assay: as above; conditions: fentrazamide 250 EC 300 g a.i./ha; spray at BBCH 23 stage of the rice, 29 days after sowing; scored 2 weeks after application; outdoor test Brazil 1999
Source text: as §1, §2, §3, §4

Echinochloa crus-galli [17] = assay: Example G: test in sown rice (Philippines), herbicidal effect; conditions: fentrazamide 50 WP 135 g a.i./ha; spray 11 days after sowing (4-leaf-stage); scored 8 weeks after application; outdoor test Philippines 1999
Source text: as §1
as §2, with “(2.5 m×2.5” for “(2 m×5”, “11” for “29”, “(4-leaf-stage” for “(during the BBCH 23 development stage”, “rice),” for “rice; begin of stocking),”, “1 day” for “A few days”
as §10, §4

Paddy rice (Oryza sp.) [18] = assay: Example D: test in sown rice (Brazil), damage to rice; conditions: fentrazamide 250 EC 300 g a.i./ha; spray at BBCH 23 stage of the rice, 29 days after sowing; scored 2 weeks after application; outdoor test Brazil 1999
Source text: as §1, §2, §3, §4

Echinochloa crus-galli [19] = assay: Example E: test in sown rice (Brazil), herbicidal effect; conditions: fentrazamide 250 EC 300 g a.i./ha; spray at BBCH 23 stage of the rice, 29 days after sowing; scored 2 weeks after application; outdoor test Brazil 1999
Source text: as §1, §2, §3, §4

Brachiaria plantaginea [20] = assay: as above; conditions: fentrazamide 250 EC 300 g a.i./ha; spray at BBCH 23 stage of the rice, 29 days after sowing; scored 2 weeks after application; outdoor test Brazil 1999
Source text: as §1, §2, §3, §4

SMILES: CCN(C(=O)n1nnn(-c2ccccc2Cl)c1=O)C1CCCCC1 [(A), 4-(2-chlorophenyl)-N-cyclohexyl-N-ethyl-4,5-dihydro-5-oxo-1H-tetrazole-1-carboxamide]
- Damage or action in % Paddy rice (Oryza sp.) found (Paddy rice (Oryza sp.) [1]): 0%
- Damage or action in % Paddy rice (Oryza sp.) found (Paddy rice (Oryza sp.) [2]): 2%
- Damage or action in % Paddy rice (Oryza sp.) found (Paddy rice (Oryza sp.) [3]): 0%
- Damage or action in % Echinochloa crus-galli found (Echinochloa crus-galli [4]): 47%
- Damage or action in % Leptochloa chinensis found (Leptochloa chinensis): 38%
- Damage or action in % Paddy rice (Oryza sp.) found (Paddy rice (Oryza sp.) [5]): 0%
- Damage or action in % Eleusine indica found (Eleusine indica): 50%
- Damage or action in % Acantho-spermum hispidum found (Acanthospermum hispidum): 50%
- Damage or action in % Digitaria Sanguina-lis found (Digitaria sanguinalis): 50%
- Damage or action in % Commelina Bengha-lensis found (Commelina benghalensis): 50%
- Damage or action in % Aeschynomene rudis found (Aeschynomene rudis): 30%
- Damage or action in % Paddy rice (Oryza sp.) found (Paddy rice (Oryza sp.) [6]): 0%
- Damage or action in % Paddy rice (Oryza sp.) found (Paddy rice (Oryza sp.) [7]): 3%
- Damage or action in % Mountain rice (Oryza sp.) found [8]: 0%
- Damage or action in % Echinochloa crus-galli found (Echinochloa crus-galli [9]): 35%
- Damage or action in % Brachiaria plantaginea found (Brachiaria plantaginea [10]): 10%
- Damage or action in % Echinochloa crus-galli found (Echinochloa crus-galli [11]): 58%
- Damage or action in % Paddy rice (Oryza sp.) found (Paddy rice (Oryza sp.) [12]): 0%
- Damage or action in % Echinochloa crus-galli found (Echinochloa crus-galli [13]): 35%
- Damage or action in % Brachiaria plantaginea found (Brachiaria plantaginea [14]): 10%
- Damage or action in % Echinochloa crus-galli found (Echinochloa crus-galli [15]): 35%
- Damage or action in % Brachiaria plantaginea found (Brachiaria plantaginea [16]): 10%
- Damage or action in % Echinochloa crus-galli found (Echinochloa crus-galli [17]): 78%
- Damage or action in % Paddy rice (Oryza sp.) found (Paddy rice (Oryza sp.) [18]): 0%
- Damage or action in % Echinochloa crus-galli found (Echinochloa crus-galli [19]): 35%
- Damage or action in % Brachiaria plantaginea found (Brachiaria plantaginea [20]): 10%
